Assay results: US9669005B2, “Use of naringenin in preparing drugs for preventing and/or treatment abdominal aortic aneurysm” (priority 2013, dated 2017)

Columns and labels:
[1] = Body weight and blood fat of CaPO4 treated C57BL/6J mice; format: in vivo; settings: CaPO4 treated C57BL/6J mice; gavage 7 days; naringenin 50 mg/kg, doxycycline 100 mg/kg
Experimental: (§1) Gavage was started at the first day after surgery, and water, naringenin (50 mg/kg) (Sigma-Aldrich, St. Louis, Mo.) or doxycycline (100 mg/kg) (Sigma-Aldrich, St. Louis, Mo.) gavage were given on mice daily. Materials were removed from the mice 7 days after gavage. Mice were weighed, and blood was drawn from inner canthus by capillary, after centrifuged for 10 minutes at 6000 rotations, the supernatant was removed and blood fat was measured (kit is purchased from BIOSINO company). Then perfusion and washing were performed on mice using PBS. Blood vessels were separated, and four blood vessels were randomly chosen for each group for photographing. The results were shown in FIG. 1, wherein, NaCl was the group of daubing NaCl (n=11), CaPO4 was the group of daubing CaPO4 plus water feed (n=12), CaPO4+NGN was the group of daubing CaPO4 μlus naringenin gavage (n=11), and CaPO4+Dox was the group of daubing CaPO4 μlus doxycycline gavage (n=11).

[2] = system: abdominal aortic aneurysms in C57BL/6J mice with CaPO4 daubed infrarenal arteries; test: Abdominal aortic aneurysm model induced by CaPO4 daubed infrarenal aortas, naringenin or doxycycline gavage; format: in vivo; settings: CaPO4 daubed C57BL/6 mice; daily gavage 7 days; naringenin 50 mg/kg, doxycycline 100 mg/kg; average ± SD; CaPO4 + water 1.40±0.19, NaCl 0.77±0.06
Experimental: 12-week old of male C57BL/6 mice were anesthetized via intraperitoneal injection of 0.1% pentobarbital sodium (injection according to body weight, […]). Infrarenal abdominal aortas were separated, and the separated infrarenal abdominal aortas were packaged by gauze (1 cm in width×3 cm in length) soaked in 0.5 M CaCl2 solution. After 10 minutes, the gauze was removed, gauze soaked in PBS was instead used to package the blood vessel for 5 min. CaCl2+and PO4^−3 in PBS can form CaPO4 crystal, that is, corresponding to daubing CaPO4 to the blood vessel. After packaging the blood vessel with gauze soaked in NaCl for 10 minutes, gauze soaked in PBS is instead used for 5 min, serving as NaCl daubed control group.
as §1
The blood vessels were sliced, and the change of the diameters in infrarenal abdominal aortas of mice were identified by H.E. staining. […] The data in FIG. 2A were an average value±standard deviation.
The fracture degree of elastic lamina is also an index showing the severity of abdominal aortic aneurysms. The degradation of elastic lamina is divided into four grades. The first grade means that the degradation of elastic lamina is less than 25%, with the second grade of 25%-50%, the third grade of 50%-75%, and the fourth grade means the fracture is more than 75%. We used Gomori staining to identify the fracture situation of elastic lamina of infrarenal abdominal aortas of mice. […] The data in FIG. 2B were an average value±standard deviation.

C[C@H]1c2cccc(O)c2C(=O)C2=C(O)[C@]3(O)C(=O)C(C(N)=O)=C(O)[C@@H](N(C)C)[C@@H]3[C@@H](O)[C@@H]21 [doxycycline, reference compound]
Body weight [1]: 21.0 ± 1.89 g
Cholesterol [1]: 3.49 ± 0.64 mmol
Triglyceride [1]: 1.07 ± 0.32 mmol
diameters of infrarenal abdominal aortas (H.E. staining) [2]: 0.99±0.18 mm
